This note sets out measurements from US20100113533A1, “Polymorph II of 4-[4-(Amino)-3- Fluorophenoxy]-N-Methylpyridine-2-Carboxamide” (BAYER SCHERING PHARMA AKTIENGESELLSCHAFT, priority 2006, published 2010).

The data set in a line: Solubility in water and in organic solvents. The class given is physicochemical.

For `CNC(=O)c1cc(Oc2ccc(NC(=O)Nc3ccc(Cl)c(C(F)(F)F)c3)c(F)c2)ccn1` [polymorph II, 4-[4-({[4-chloro-3-(trifluoromethyl)phenyl]carbamoyl}amino)-3-fluorophenoxy]-N-methylpyridine-2-carboxamide], the “solubility in organic solvents” value (organic solvents) is given as “high solubility”. Moreover, the solubility in water result (water) was “high solubility”.
